Reference: patent US9150528B2, “Compound having detrusor muscle-contracting activity and urethral sphincter muscle-relaxing activity” (ONO PHARMACEUTICAL CO., LTD., priority 2009, dated 2015)

Legend:
[1] = test system: underactive bladder models; assay: Residual urinary volumes and bladder capacities in underactive bladder models (cystometry); type: in vivo, rat; conditions: 0.01 mg/kg, oral, underactive bladder model rats
Experimental: The underactive bladder models were constructed in accordance with the following procedure. Female Wistar rats (8 to 9 weeks age) were anesthetized by intraperitoneal administration of Somnopentyl (40 mg/kg), followed by dorsal shaving, and fixed in abdominal positions. Each of the dorsal areas was disinfected with chlorhexidine gluconate (5% hibitane liquid). The waist area was median-incised to expose the spinal column. After excision of the fifth lumbar spinous process, a silicone rubber was inserted into the sixth lumbar direction from a hole bored by a mini drill. For the purpose of avoiding infections, after completion of the surgical operation, benzylpenicillin potassium (25000 U/0.25 mL/body) was added dropwise to the incised area. The muscle and skin of the incised area were sutured with silk threads, and iodine tincture was applied to the sutured area. After the operation, maintenance of voiding was carried out by manual compressions three times daily. For the purpose of avoiding infections, potassium penicillin G (1.25 units/body) was administered subcutaneously. More than 5 days prior to cystometric evaluation, a catheter for cystometrogram was indwelled in the bladder. Anesthesia with sodium pentobarbital (40 mg/kg by intraperitoneal administration) and incision along the midline of the abdomen were carried out, followed by incision of the apex of the bladder. A catheter for cystometrogram filled with physiological saline was inserted into the bladder from a hole of the apical area, and fixed by ligation using silk suture threads. […]
The rats were anesthetized with ether and housed in a Bollmann cage 2 weeks after the construction of the models. To the front end of each of the bladder catheters, a pressure transducer via a three-way cock was connected, and the intravesical pressure was recorded using a strain pressure amplifier•recorder. […]
[…] After 1 hr, physiological saline was perfused into the bladder at a flow rate of 2 mL/h and voiding parameters (bladder capacity and residual urinary volume) were measured. […] Voiding parameters were calculated for each cystometry. […]

[2] = Parallel artificial membrane permeability assay (PAMPA); type: in vitro ADME; conditions: sum of pH 5.0, 6.2 and 7.4, 25° C., read-out: membrane permeability coefficients (PAMPA(SUM))
Experimental: The permeability of the drugs through artificial membranes was measured by parallel artificial membrane permeability assay (PAMPA) under the following conditions. For the measurements, a PAMPA system (pION) was used. The membrane permeability was evaluated by measuring membrane permeability coefficients at three pH values and summing the values (PAMPA(SUM)(cm/sec)).
Lipid membrane: GIT-0 (pION)
Incubation temperature: 25° C.
Donor: 5% DMSO-containing buffer
Compound concentration: 50 μmol/L

- bladder capacity ([1]; versus normal group): no effect
- Papp at 4 hr, 50 μmol/L [2]: 593 nm/s
SMILES: C[C@@](O)(C/C=C/[C@H]1CCC(=O)[C@@H]1CCSc1nc(C(=O)O)cs1)CCC(F)=C(F)F [Compound 17, 2-[(2-{(1R,5R)-2-oxo-5-[(1E,4S)-7,8,8-trifluoro-4-hydroxy-4-methyl-1,7-octadien-1-yl]cyclopentyl}ethyl)thio]-1,3-thiazole-4-carboxylic acid]
- residual urinary volume ([1]; versus vehicle group): significant reduction
